# Test results: patent publication US20190365927A1, “COMPOSITION FOR PHOTODYNAMIC THERAPY USING GENE EXPRESSING FLUORESCENT PROTEIN AND PHOTOSENSITIZER, AND PHOTODYNAMIC THERAPY METHOD USING SAME” (priority 2017, published 2019)
# Key:
# [1] = system: GFP+ A549, RFP+ A549 and YFP+ A549 cells; test: In vitro PDT of GFP+, RFP+ and YFP+ cells with photosensitizer, MTT analysis; type: cell-based, human; conditions: 1 μM, blue laser light (488 nm), FIG. 20
# Procedure: Photo inducing death of GFP+, RFP+, and YFP+ cells via the photosensitizer was measured by MTT analysis. The specific experimental procedure is as follows.
# To investigate photo inducing death of GFP+ cells, RFP+ cells, and YFP+ cells via the photosensitizer, rose bengal, hematoporphyrin (Sigma-aldrich #5518) or 5-ALA (5-Aminolevulinic acid hydrochloric, Sigma-aldrich # A3785) was diluted with RPMI medium containing 10% FBS. 1 μM concentration of rose bengal, hematoporphyrin or 5-ALA was prepared. Further, GFP+ A549 cells, RFP+ A549 cells and YFP+ A549 cells selected from the 1-4 were pre-incubated at a density of 5×10^3 cells per well on 96-well, black, and clear bottom plates. A549 cells with pcDNA 3.1 vector injected thereto were cultured as control. Then, each of the photosensitizers as produced was applied or not applied to the preincubated cells in the preincubated cells which in turn were cultured for 4 hours. After 4 hours, the cells were washed three times with PBS buffer. Irradiation or non-irradiation of blue laser light (488 nm; radiation dose rate=2 J/cm^2) or yellow laser light (570 nm; radiation dose rate=2 J/cm^2) thereto was carried out for 5 seconds. After irradiation or non-irradiation, a fresh culture medium was added to the wells. The cells were cultured again for 24 hours. MTT analysis was then performed.
# eGFP+ 4T1 cells = test: In vitro PDT with rose bengal and blue laser light, MTT analysis; type: cell-based
# Procedure: (§1) The photo inducing death of GFP− and GFP+ cells after blue light irradiation was measured by MTT analysis in the presence or absence of rose bengal (RB). The specific experimental procedure is as follows.
# (§2) RB was diluted with DMEM containing 10% FBS to produce RB at concentrations of 6.25, 12.5, 25, 50, and 100 μM. GFP− and GFP+ cells were pre-incubated in 96-well, black, and clear bottom plates at a density of 2×10^4 cells per well. Then cells were incubated with RB for 4 hours. The addition of a fresh culture medium without photosensitizer to the wells was performed. This was used as an untreated control. Cells were washed 3 times with PBS buffer.
# (§3) In the PDT-treated group, the cell was irradiated with blue laser light (473 nm, radiation dose rate=80 mW/cm^2) for 1 to 60 seconds. The toxicity of pure RB on GFP+ and GFP− cells was measured in the dark room. After the irradiation, the fresh culture medium was added to the wells, and cells were cultured again for 24 hours. The medium was then measured by MTT assay. 150 μL of solubilizing solution and stop solution were added thereto, followed by incubation at 37° C. for 4 hours. The absorbance of the reaction solution was measured at 570 nm. Cell viability was calculated by the following equation:
# (ODtreated/ODcontrol)×100%.
# (§4) Each experiment was performed independently. Cell death was measured by LDH analysis.
# Th cells were seeded on a 24-well plate at a density of 5×10^4 per well. After the photosensitizer treatment thereto, blue light was irradiated thereto as described above. Each culture medium was prepared. For LDH analysis, LDH Cytotoxicity Assay kit (Cayman Chemical Company, Ann Arbor, Mich., USA) was used according to the producer protocol. 100 μL of the supernatant of the cultured cells was transferred from the well to a corresponding well of the new plate, and then 100 μL of the reaction solution was added to each well. The plates were incubated for 30 minutes at room temperature while executing gentle shaking thereof with an orbital shaker. The absorbance was measured at 490 nm using a plate reader.
# eGFP− 4T1 cells = test: as above; type: cell-based, Mus musculus; conditions: 473 nm laser light after RB treatment, similar conditions, FIG. 2A
# Procedure: as §1, §2
# as §3, with “150 μL of solubilizing solution and stop solution were added thereto, followed by incubation at 37° C. for 4 hours.” left out, “equation: […]” for “equation:”
# as §4
# Th cells were seeded on a 24-well plate at a density of 5×10^4 per well. […] The absorbance was measured at 490 nm using a plate reader.
compound,measurement,setting,value
"O=C1OC2(c3cc(I)c(O)c(I)c3Oc3c2cc(I)c(O)c3I)c2c(Cl)c(Cl)c(Cl)c(Cl)c21 [RB, rose bengal]","cell death effect, YFP+ versus GFP+ cell",[1],the cell death effect of the YFP+ cell is higher than that of GFP+ cell
same,selective cell death of eGFP+ versus eGFP− 4T1 cells,"eGFP+ 4T1 cells; blue laser light (473 nm), FIG. 1B",the cells selectively died
same,eGFP+ cells selectively killed,"eGFP+ 4T1 cells; exposed to 473 nm laser light after RB treatment, FIG. 2A",~60%
same,"cytotoxicity, eGFP+ versus eGFP− cells","eGFP+ 4T1 cells; extremely high concentrations of RB and extremely long exposure time, FIG. 2C",a similar level of cytotoxicity was observed between eGFP+ and eGFP− cells
same,"cell death percentage, eGFP+ versus eGFP− cells","eGFP+ 4T1 cells; higher RB concentration and longer exposure time, FIG. 2C",cell death percentage of eGFP+ cells was higher than that of eGFP− cells
same,eGFP− cells killed,eGFP− 4T1 cells,20%
